In US20050124562A1, “Bis-quinazoline compounds for the treatment of bacterial infections” (priority 2003, published 2005):
In brackets after ≈: the same amount, converted by molar mass.

What follows are compounds tested on S. aureus, E. faecalis, S. pyogenes and S. pneumoniae (assay: Broth microdilution MIC (NCCLS), gram-positive strains). Settings: not given.
Assay type: cell-based
Description: Representative bis-quinazolines were tested for antibacterial activity using the […] microdilution method to determine their minimum inhibitory concentrations (MICs). All compounds were tested using standard methods in accordance with NCCLS guidelines (National Committee for Clinical Laboratory Standards. 2003. Methods for dilution antimicrobial susceptibility testing for bacteria that grow aerobically. Approved Standard M-7 A-6, NCCLS, Wayne, Pa.). The bacterial strains used in the susceptibility tests were obtained from the American Type Culture Collection (ATCC) and included resistant phenotypes such as oxacillin-resistant S. aureus (ORSA) and vancomycin-resistant enterococci (VRE). The minimum bactericidal concentrations (MBCs) were determined for selected organisms. The effect of protein binding on the antibacterial activity of representative bis-quinazolines were determined by conducting MIC tests in the presence of human serum.
With `COc1ccc2nc(Nc3nc(O)c4cccc(OC)c4n3)nc(C)c2c1` [Example 10, 8-Methoxy-2-(6-methoxy-4-methyl-quinazolin-2-ylamino)-quinazolin-4-ol] the MIC was 0.06 to 16 µg/mL (≈ 0.165 to 44 µM). Work on `COc1cc(OC)c2nc(Nc3nc(O)c4cccc(OC)c4n3)nc(C)c2c1` [Example 11, 2-(6,8-Dimethoxy-4-methyl-quinazolin-2-ylamino)-8-methoxy-quinazolin-4-ol] yielded an MIC of 0.06 to 16 µg/mL (≈ 0.153 to 40.7 µM). `CCOc1cccc2nc(Nc3nc(C)c4cc(OC)c(OC)cc4n3)nc(O)c12` [Example 13, 2-(6,7-Dimethoxy-4-methyl-quinazolin-2-ylamino)-5-ethoxy-quinazolin-4-ol] was tested, and the MIC was 0.06 to 16 µg/mL (≈ 0.147 to 39.3 µM). Work on `Cc1nc(Nc2nc(O)c3ccccc3n2)nc2cc3c(cc12)OCO3` [Example 15, 2-(8-Methyl-[1,3]dioxolo[4,5-g]quinazolin-6-ylamino)-quinazolin-4-ol] yielded an MIC of 0.06 to 16 µg/mL (≈ 0.173 to 46.1 µM). Compound `Cc1nc(Nc2nc(O)c3ccccc3n2)nc2ccc(O)cc12` [Example 16, 2-(4-Hydroxy-quinazolin-2-ylamino)-4-methyl-quinazolin-6-ol] has an MIC of 0.06 to 16 µg/mL (≈ 0.188 to 50.1 µM). `COc1ccc2nc(Nc3nc(O)c4cccc(C)c4n3)ncc2c1` [Example 20, 2-(6-Methoxy-quinazolin-2-ylamino)-8-methyl-quinazolin-4-ol] was tested, and the MIC was 0.06 to 16 µg/mL (≈ 0.18 to 48 µM). In the case of `COc1cccc2c(C)nc(Nc3nc(O)c4cc(C)cc(C)c4n3)nc12` [Example 48, 2-(8-Methoxy-4-methyl-quinazolin-2-ylamino)-6,8-dimethyl-quinazolin-4-ol], the MIC was 0.06 to 16 µg/mL (≈ 0.166 to 44.3 µM). Compound `CCc1nc(Nc2nc(O)c3ccccc3n2)nc2ccc(OC)cc12` [Example 49, 2-(4-Ethyl-6-methoxy-quinazolin-2-ylamino)-quinazolin-4-ol] has an MIC of 0.06 to 16 µg/mL (≈ 0.173 to 46.1 µM). `COc1cccc2c(C)nc(Nc3nc(O)c4cccc(C)c4n3)nc12` [Example 51, 2-(8-Methoxy-4-methyl-quinazolin-2-ylamino)-8-methyl-quinazolin-4-ol] was tested, and the MIC was 0.06 to 16 µg/mL (≈ 0.173 to 46.1 µM). `COc1cc2nc(Nc3nc(O)c4ccccc4n3)nc(C)c2cc1OC` [Example 52, 2-(6,7-Dimethoxy-4-methyl-quinazolin-2-ylamino)-quinazolin-4-ol] gave an MIC of 0.06 to 16 µg/mL (≈ 0.165 to 44 µM). `COc1cccc2c(C)nc(Nc3nc(O)c4ccccc4n3)nc12` [Example 58, 2-(8-Methoxy-4-methyl-quinazolin-2-ylamino)-quinazolin-4-ol] was tested, and the MIC was 0.06 to 16 µg/mL (≈ 0.18 to 48 µM). `CCOc1cccc2c(C)nc(Nc3nc(O)c4ccccc4n3)nc12` [Example 59, 2-(8-Ethoxy-4-methyl-quinazolin-2-ylamino)-quinazolin-4-ol] gave an MIC of 0.06 to 16 µg/mL (≈ 0.173 to 46.1 µM). `COc1ccc2nc(Nc3nc(O)c4cc(O)ccc4n3)nc(C)c2c1` [Example 60, 2-(6-Methoxy-4-methyl-quinazolin-2-ylamino)-quinazoline-4,6-diol] was tested, and the MIC was 0.06 to 16 µg/mL (≈ 0.172 to 45.8 µM). Compound `COc1ccc2nc(Nc3nc(O)c4cc(OC)ccc4n3)nc(C)c2c1` [Example 61, 6-Methoxy-2-(6-methoxy-4-methyl-quinazolin-2-ylamino)-quinazolin-4-ol] has an MIC of 0.06 to 16 µg/mL (≈ 0.165 to 44 µM). `COc1ccc2nc(Nc3nc(O)c4cc(OC)c(OC)cc4n3)nc(C)c2c1` [Example 62, 6,7-Dimethoxy-2-(6-methoxy-4-methyl-quinazolin-2-ylamino)-quinazolin-4-ol] gave an MIC of 0.06 to 16 µg/mL (≈ 0.153 to 40.7 µM). With `COc1ccc2nc(Nc3nc(O)c4cc(C)ccc4n3)nc(C)c2c1` [Example 63, 2-(6-Methoxy-4-methyl-quinazolin-2-ylamino)-6-methyl-quinazolin-4-ol] the MIC was 0.06 to 16 µg/mL (≈ 0.173 to 46.1 µM). With `COc1ccc2nc(Nc3nc(O)c4cccc(C)c4n3)nc(C)c2c1` [Example 65, 2-(6-Methoxy-4-methyl-quinazolin-2-ylamino)-8-methyl-quinazolin-4-ol] the MIC was 0.06 to 16 µg/mL (≈ 0.173 to 46.1 µM).

Same assay, conditions: range against some strains of S. aureus, E. faecalis, S. pyogenes and S. pneumoniae; read-out: MIC
`COc1ccc2nc(Nc3nc(O)c4cc(N)cc(C)c4n3)nc(C)c2c1.O=C(O)C(F)(F)F` [Example 22, 6-Amino-2-(6-methoxy-4-methyl-quinazolin-2-ylamino)-8-methyl-quinazolin-4-ol trifluoroacetate salt] gave an MIC of 0.06 to 16 µg/mL. For `COc1ccc([N+](=O)[O-])c2c(C)nc(Nc3nc(O)c4ccccc4n3)nc12.O=C(O)C(F)(F)F` [Example 26, 2-(8-Methoxy-4-methyl-5-nitro-quinazolin-2-ylamino)-quinazolin-4-ol trifluoroacetate salt], the MIC was 0.06 to 16 µg/mL. Compound `COc1ccc(OC)c2c(C)nc(Nc3nc(O)c4ccccc4n3)nc12.O=C(O)C(F)(F)F` [Example 27, 2-(5,8-Dimethoxy-4-methyl-quinazolin-2-ylamino)-quinazolin-4-ol trifluoroacetate salt] has an MIC of 0.06 to 16 µg/mL. For `COc1ccc([N+](=O)[O-])c2c(C)nc(Nc3nc(O)c4cc(C)cc(C)c4n3)nc12.O=C(O)C(F)(F)F` [Example 30, 2-(8-Methoxy-4-methyl-5-nitro-quinazolin-2-ylamino)-6,8-dimethyl-quinazolin-4-ol, trifluoroacetate salt], the MIC was 0.06 to 16 µg/mL. Work on `COc1cc2c(C)nc(Nc3nc(O)c4ccccc4n3)nc2cc1F.O=C(O)C(F)(F)F` [Example 32, 2-(7-Fluoro-6-methoxy-4-methyl-quinazolin-2-ylamino)-quinazolin-4-ol trifluoroacetate salt] yielded an MIC of 0.06 to 16 µg/mL. In the case of `CSc1ccc2nc(Nc3nc(O)c4ccccc4n3)nc(C)c2c1.O=C(O)C(F)(F)F` [Example 35, 2-(4-Methyl-6-methylsulfanyl-quinazolin-2-ylamino)-quinazolin-4-ol trifluoroacetate salt], the MIC was 0.06 to 16 µg/mL. `COc1ccc2nc(Nc3nc(O)c4c(OC)cccc4n3)nc(C)c2c1.O=C(O)C(F)(F)F` [Example 37, 5-Methoxy-2-(6-methoxy-4-methyl-quinazolin-2-ylamino)-quinazolin-4-ol trifluoroacetate salt] gave an MIC of 0.06 to 16 µg/mL. For `COc1cc2nc(Nc3nc(O)c4cc(C)cc(C)c4n3)nc(C)c2cc1OC.O=C(O)C(F)(F)F` [Example 41, 2-(6,7-Dimethoxy-4-methyl-quinazolin-2-ylamino)-6,8-dimethyl-quinazolin-4-ol trifluoroacetate salt], the MIC was 0.06 to 16 µg/mL. `COc1ccc(OC)c2c(C)nc(Nc3nc(O)c4cc(C)cc(C)c4n3)nc12.O=C(O)C(F)(F)F` [Example 43, 2-(5,8-Dimethoxy-4-methyl-quinazolin-2-ylamino)-6,8-dimethyl-quinazolin-4-ol trifluoroacetate salt] gave an MIC of 0.06 to 16 µg/mL. Compound `CC(=O)O.COc1cc2c(C)nc(Nc3nc(O)c4cc(C)cc(C)c4n3)nc2cc1F` [Example 44, 2-(7-Fluoro-6-methoxy-4-methyl-quinazolin-2-ylamino)-6,8-dimethyl-quinazolin-4-ol acetate salt] has an MIC of 0.06 to 16 µg/mL. Work on `COc1ccc2nc(Nc3nc(O)c4ccccc4n3)nc(CF)c2c1.O=C(O)C(F)(F)F` [Example 45, 2-(4-Fluoromethyl-6-methoxy-quinazolin-2-ylamino)-quinazolin-4-ol trifluoroacetate salt] yielded an MIC of 0.06 to 16 µg/mL. `COc1cc(OC)c2nc(Nc3nc(O)c4cccc(C)c4n3)nc(C)c2c1.O=C(O)C(F)(F)F` [Example 46, 2-(6,8-Dimethoxy-4-methyl-quinazolin-2-ylamino)-8-methyl-quinazolin-4-ol trifluoroacetate salt] was tested, and the MIC was 0.06 to 16 µg/mL. `COc1ccc2nc(Nc3nc(O)c4cc(N)ccc4n3)nc(C)c2c1.O=C(O)C(F)(F)F` [Example 47, 6-Amino-2-(6-methoxy-4-methyl-quinazolin-2-ylamino)-quinazolin-4-ol trifluoroacetate salt] gave an MIC of 0.06 to 16 µg/mL. Work on `COc1cc(OC)c2nc(Nc3nc(O)c4cc([N+](=O)[O-])cc(C)c4n3)nc(C)c2c1.O=C(O)C(F)(F)F` [Example 67, 2-(6,8-Dimethoxy-4-methyl-quinazolin-2-ylamino)-8-methyl-6-nitro-quinazolin-4-ol trifluoroacetate salt] yielded an MIC of 0.06 to 16 µg/mL. In the case of `COc1cccc2c(C)nc(Nc3nc(O)c4cc([N+](=O)[O-])cc(C)c4n3)nc12.O=C(O)C(F)(F)F` [Example 68, 2-(8-Methoxy-4-methyl-quinazolin-2-ylamino)-8-methyl-6-nitro-quinazolin-4-ol trifluoroacetate salt], the MIC was 0.06 to 16 µg/mL. `COCCOc1ccc2nc(Nc3nc(O)c4cc([N+](=O)[O-])cc(C)c4n3)nc(C)c2c1.O=C(O)C(F)(F)F` [Example 69, 2-[6-(2-Methoxy-ethoxy)-4-methyl-quinazolin-2-ylamino]-8-methyl-6-nitro-quinazolin-4-ol trifluoroacetate salt] showed an MIC of 0.06 to 16 µg/mL. Compound `COCCOc1ccc2nc(Nc3nc(O)c4cc(N)cc(C)c4n3)nc(C)c2c1.O=C(O)C(F)(F)F` [Example 70, 6-Amino-2-[6-(2-methoxy-ethoxy)-4-methyl-quinazolin-2-ylamino]-8-methyl-quinazolin-4-ol trifluoroacetate salt] has an MIC of 0.06 to 16 µg/mL. In the case of `COc1ccc2nc(Nc3nc(O)c4cccc(O)c4n3)nc(C)c2c1.O=C(O)C(F)(F)F` [Example 71, 2-(6-Methoxy-4-methyl-quinazolin-2-ylamino)-quinazoline-4,8-diol trifluoroacetate salt], the MIC was 0.06 to 16 µg/mL. `COc1cccc2c(C)nc(Nc3nc(O)c4cccc(O)c4n3)nc12.O=C(O)C(F)(F)F` [Example 72, 2-(8-Methoxy-4-methyl-quinazolin-2-ylamino)-quinazoline-4,8-diol trifluoroacetate salt] showed an MIC of 0.06 to 16 µg/mL. For `COc1ccc2c(C)nc(Nc3nc(O)c4cc(C)cc(C)c4n3)nc2c1OC.O=C(O)C(F)(F)F` [Example 73, 2-(7,8-Dimethoxy-4-methyl-quinazolin-2-ylamino)-6,8-dimethyl-quinazolin-4-ol trifluoroacetate salt], the MIC was 0.06 to 16 µg/mL. `COc1ccc2c(C)nc(Nc3nc(O)c4ccccc4n3)nc2c1OC.O=C(O)C(F)(F)F` [Example 74, 2-(7,8-Dimethoxy-4-methyl-quinazolin-2-ylamino)-quinazolin-4-ol trifluoroacetate salt] gave an MIC of 0.06 to 16 µg/mL.
